The structures appear in SMILES notation.

This data set in a line: gradient 5% acetonitrile 3 min, to 50% in 2 min, to 85% in 15 min, held 3 min, 100 µL/min. The conditions noted are these: column: Zorbax Extend-C18 2.1 x 50 mm; eluents: water / acetonitrile, 0.1% formic acid. The gist of the method:
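Mixtures of ~100 pure standards were chromatographed on a Zorbax Extend-C18 column (2.1 × 50 mm, 1.8 μm) at 100 μL/min using water and acetonitrile, each with 0.1% formic acid. Detection used a quadrupole time-of-flight mass spectrometer in positive and negative ionization mode, and data collection spanned 3 months. Retention time was obtained from adduct peaks picked computationally and each checked manually.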
As to `COc1cc(OC)cc(C(=O)N2CCN(c3nnc4c(Cl)cccn34)CC2)c1`, the RP-LC retention time was found to be 603 s.

Take `O=C(Nc1nc(-c2ccccc2)cs1)c1ccc(COc2ccc(Cl)cc2Cl)o1`: the RP-LC retention time is 1280 s.

Turning to `COC(=O)c1ccc(-c2nc3cnccn3c2Nc2cc(C)cc(C)c2)cc1`, the RP-LC retention time came to 978 s.

With `COc1cc(C(=O)Nc2sc3c(c2C(N)=O)CC(C)CC3)cc(OC)c1OC` (stereo not drawn), the RP-LC retention time was 1020 s.

As for `CC1CCC(NC(=O)C2CCCN(C(=O)c3cc(-c4ccccn4)n[nH]3)C2)CC1` (stereo not drawn), the RP-LC retention time was 636 s.

In turn, `CCOC(=O)C1=C(CN2CCN(CC)CC2)NC(=O)NC1c1ccccc1Cl` (stereo not drawn) had an RP-LC retention time of 571 s.

`COc1ccc(-c2nn3c(CSc4ccccc4)nnc3s2)cc1OC` returned an RP-LC retention time of 882 s.

As to `CCc1nc2cc(-c3noc(Cc4ccc(OC)c(Cl)c4)n3)ccc2o1`, the RP-LC retention time amounted to 1120 s.

Turning to `CN1C[C@@H]2c3ccccc3Oc3ccc(Cl)cc3[C@H]2C1`, the RP-LC retention time was 758 s.

`C=CCN1C(=O)COc2ccc(-c3nc(NC(=O)C(C)(C)C)sc3C)cc21` displayed an RP-LC retention time of 1010 s.

In the case of `CCOC(=O)C1CCN(C(=O)CN2C(=O)COc3ccc(C(=O)N(CC)CC)cc32)CC1`, the RP-LC retention time is 700 s.

In turn, `CCOC(=O)Cn1c(C2CC(=O)N(c3cccc(SC)c3)C2)nc2ccccc21` (stereo not drawn) came in with an RP-LC retention time of 852 s.

`CCOc1ccc2nc(NC(=O)CCN3C(=O)C4C5C=CC(C5)C4C3=O)sc2c1` (stereo not drawn): the RP-LC retention time stood at 834 s.

With `COC(=O)c1ccc(Cn2cnc3c(Cl)ncnc32)cc1`, the RP-LC retention time was 790 s.

`O=C(Cc1csc(-c2ccccc2)n1)NCc1nc2ccccc2[nH]1` came in with an RP-LC retention time of 647 s.

Compound `O=C(Nc1ccc(F)c(F)c1)c1cnc(-c2ccc(F)cc2)nc1-c1ccncc1` registered an RP-LC retention time of 985 s.

`CC(=O)N1c2ccc(S(=O)(=O)N3CCCCCC3)cc2CC1C(=O)NCc1ccccc1` (stereo not drawn) returned an RP-LC retention time of 912 s.

In the case of `Cc1noc(C)c1-c1ccc(S(=O)(=O)NCCc2ccccc2)cc1`, the RP-LC retention time is 957 s.

In the case of `Cc1cc(N2CCN(S(=O)(=O)c3ccc(F)c(F)c3)CC2)nc(N2CCCC2)n1`, the RP-LC retention time came out at 720 s.

With `O=C(Cn1c(=O)nc(-c2ccccc2)c2ccccc21)N1CCN(c2ccccn2)CC1`, the RP-LC retention time amounted to 609 s.

For the compound `O=C(COc1ccccc1F)N1CCN(Cc2csc(-c3ccccc3)n2)CC1`, the RP-LC retention time stood at 606 s.

Consider `CCCCc1ccc(NC(=O)N2CCC3(C2)c2nc[nH]c2CCN3C)cc1` (stereo not drawn), for which the RP-LC retention time was 565 s.

`CC(C)CC(=O)Nc1ccc2nc(N3CCN(c4cccc(Cl)c4)CC3)cc(C(=O)O)c2c1` showed an RP-LC retention time of 762 s.

In turn, `O=S(=O)(NC1CCCCC1)c1ccccc1-c1nc(-c2ccccc2)no1` yielded an RP-LC retention time of 1280 s.

`CC(Oc1ccccc1F)C(=O)Nc1nc(-c2ccc(S(=O)(=O)N3CCOCC3)cc2)cs1` (stereo not drawn): the RP-LC retention time amounted to 1010 s.

The compound `COc1nc2ccccc2nc1N1CCCC(C(=O)NC2CCCCCC2)C1` (stereo not drawn) returned an RP-LC retention time of 1090 s.

`COc1ccc(NC(=O)Nc2c(-c3ccc(C)cc3)nc3ccccn23)cc1Cl` had an RP-LC retention time of 712 s.

In turn, `COc1ccc(CC(=O)Nc2ccc3ncnc(N4CCCC4)c3c2)cc1Cl` returned an RP-LC retention time of 680 s.

For the compound `Cc1ccc(-c2csc(NC(=O)CSc3nnc(-c4cc5ccccc5o4)n3C)n2)cc1`, the RP-LC retention time turned out to be 1050 s.

`CCOC(=O)c1c(S(=O)(=O)N2CCC(C(=O)Nc3ncccc3C)CC2)c(C)n(C)c1C` showed an RP-LC retention time of 632 s.

For `CCc1noc(NC(C)=O)c1-c1ccc(C)c(S(=O)(=O)Nc2cc(C)ccc2C)c1`, the RP-LC retention time was 900 s.

`CC(C)Cn1c(=O)c2cc(C(=O)NCc3cc(F)ccc3F)nn2c2ccccc21`: the RP-LC retention time was 1030 s.

In the case of `CSc1ccccc1CN1CCC(CNC(=O)Nc2c(F)cccc2F)CC1`, the RP-LC retention time amounted to 580 s.

The compound `COc1c(OP2(=S)OCC(C)(C)CO2)cnn(C2CCCCC2)c1=O` registered an RP-LC retention time of 1190 s.

For the compound `Cc1cccc(N2CCN(CC(O)COc3ccc(Cl)cc3)CC2)c1` (stereo not drawn), the RP-LC retention time worked out at 846 s.

For `CCCCN1C(=O)C(C)(C(=O)Nc2ccc(C)cc2)Oc2cccnc21` (stereo not drawn), the RP-LC retention time came out at 1060 s.

In turn, `O=C1CCCCC(Cc2ccccc2)(C(=O)NCc2cccc(C(F)(F)F)c2)N1` (stereo not drawn) had an RP-LC retention time of 893 s.

With `CC1CCN(Cc2nc3cc(NC(=O)c4ccco4)ccc3n2C(C)C)CC1`, the RP-LC retention time is 643 s.

Regarding `CC(C)Cn1cc(CCNS(=O)(=O)Cc2cccc(Cl)c2)c2cccnc21`, the RP-LC retention time was 969 s.

As for `CC(C)CC(NC(=O)CC1CCCCC1)C(=O)Nc1nc2ccccc2[nH]1` (stereo not drawn), the RP-LC retention time stood at 803 s.

`Cc1ccc(C)c(N2CCN(c3ccnc(SCC(=O)Nc4ccccc4Cl)n3)CC2)c1` came in with an RP-LC retention time of 1130 s.

Take `Cc1ccc(S(=O)(=O)Cc2cccc(-c3nc(-c4ccc5c(c4)oc(=O)n5C)no3)c2)cc1`: the RP-LC retention time was found to be 1030 s.

`COC(=O)c1ccc(C(=O)OC)c(NC(=O)N2CCC(CN3CC(C)CC(C)C3)CC2)c1` (stereo not drawn): the RP-LC retention time was 722 s.

The compound `Cc1ccc(-c2cc3c(=O)n(CC(=O)N4CCCc5ccccc54)ccn3n2)cc1` registered an RP-LC retention time of 643 s.

As to `COc1ccc(NC(=O)C2CCCN(c3nccnc3Sc3ccccc3)C2)cc1OC` (stereo not drawn), the RP-LC retention time was 969 s.

As to `Cc1nn(-c2nc(CC(=O)N(CCO)Cc3ccccc3)cs2)c(C)c1Cl`, the RP-LC retention time is 943 s.

`Fc1cccc(-c2noc(CSc3nccn3-c3ccccc3)n2)c1` displayed an RP-LC retention time of 916 s.

The compound `COc1ccccc1NC(=O)N(C)CCc1noc(COc2ccc(F)cc2)n1` registered an RP-LC retention time of 907 s.

Regarding `Cc1ccc(C(=O)NCC2CCCN(S(=O)(=O)c3c(C)c(C)cc(C)c3C)C2)cc1` (stereo not drawn), the RP-LC retention time was found to be 1100 s.

In the case of `COc1cc(NC(=O)C2CCN(S(=O)(=O)c3ccc4c(c3)CCCC(=O)N4)CC2)cc(OC)c1`, the RP-LC retention time came out at 762 s.

The compound `Cc1nn(-c2ccccc2)c(C)c1S(=O)(=O)N1CCC(C(=O)NC2CCCC2)CC1` showed an RP-LC retention time of 860 s.

`O=C(c1cc2ccccc2[nH]1)N1CCCC(c2nnc(C(F)(F)F)o2)C1` (stereo not drawn): the RP-LC retention time is 857 s.

Take `O=C(c1cccc(OCC2CCCN(C(=O)C3CCCO3)C2)c1)N1CCCCC1` (stereo not drawn): the RP-LC retention time is 750 s.

For the compound `CN1C(=O)c2cccnc2Sc2cc(NC(=O)Cc3ccc(F)cc3)ccc21`, the RP-LC retention time was 834 s.

Regarding `COc1ccc(C)cc1NC(=O)Cn1cnc2c(sc3nc(-c4ccccc4)ccc32)c1=O`, the RP-LC retention time was found to be 1090 s.

`CC(C)c1cc(C2CCCN2C(=O)c2ccsc2)no1` (stereo not drawn) had an RP-LC retention time of 828 s.

`CCc1nc(-c2ccc(-c3noc(-c4ccnn4C)n3)cc2)cs1` gave an RP-LC retention time of 1220 s.

As for `CCN(CC)C(=O)N1CC(Oc2ccc(-c3nc(C)no3)cc2)C1`, the RP-LC retention time turned out to be 824 s.
